Numbers after ± are expanded uncertainties.
Assay: activity coefficient (dimensionless); of the first substance listed, at infinite dilution; xn = mol fraction of the nth substance listed
Conditions: 101.33 kPa, Liquid, Chromatography, x1 = 0

| SMILES | activity coefficient (313.15 K) | activity coefficient (323.15 K) | activity coefficient (333.15 K) | activity coefficient (343.15 K) | activity coefficient (353.15 K) |
| --- | --- | --- | --- | --- | --- |
| CCOC(C)=O [ethyl acetate] + CCCCCCCCn1cc[n+](C)c1C.O=S(=O)([N-]S(=O)(=O)C(F)(F)F)C(F)(F)F | 0.74 ± 0.08 | 0.67 ± 0.07 | 0.61 ± 0.07 | 0.57 ± 0.06 | 0.52 ± 0.06 |
| CCc1ccccc1 [ethylbenzene] + CCCCCCCCn1cc[n+](C)c1C.O=S(=O)([N-]S(=O)(=O)C(F)(F)F)C(F)(F)F | 1.37 ± 0.14 | 1.29 ± 0.13 | 1.2 ± 0.12 | 1.14 ± 0.12 | 1.08 ± 0.11 |
| CCCCCCC [heptane] + CCCCCCCCn1cc[n+](C)c1C.O=S(=O)([N-]S(=O)(=O)C(F)(F)F)C(F)(F)F | 8.82 ± 0.93 | 7.77 ± 0.82 | 6.89 ± 0.72 | 6.29 ± 0.66 | 5.69 ± 0.6 |
| C=CCCCC [hex-1-ene] + CCCCCCCCn1cc[n+](C)c1C.O=S(=O)([N-]S(=O)(=O)C(F)(F)F)C(F)(F)F | 4.99 ± 0.52 | 4.26 ± 0.45 | 3.65 ± 0.38 | 3.18 ± 0.33 | 2.81 ± 0.3 |
| CCCCCC [hexane] + CCCCCCCCn1cc[n+](C)c1C.O=S(=O)([N-]S(=O)(=O)C(F)(F)F)C(F)(F)F | 7.89 ± 0.83 | 6.52 ± 0.69 | 5.57 ± 0.59 | 4.87 ± 0.51 | 4.22 ± 0.44 |
| CO [methanol] + CCCCCCCCn1cc[n+](C)c1C.O=S(=O)([N-]S(=O)(=O)C(F)(F)F)C(F)(F)F | 1.37 ± 0.14 | 1.26 ± 0.13 | 1.14 ± 0.12 | 1.05 ± 0.11 | 0.96 ± 0.1 |
| CC1CCCCC1 [methylcyclohexane] + CCCCCCCCn1cc[n+](C)c1C.O=S(=O)([N-]S(=O)(=O)C(F)(F)F)C(F)(F)F | 5.67 ± 0.6 | 4.88 ± 0.51 | 4.25 ± 0.45 | 3.79 ± 0.4 | 3.32 ± 0.35 |
| CCCCCCCCC [nonane] + CCCCCCCCn1cc[n+](C)c1C.O=S(=O)([N-]S(=O)(=O)C(F)(F)F)C(F)(F)F | 14.4 ± 1.5 | 12.1 ± 1.3 | 10.4 ± 1.1 | 9.04 ± 0.95 | 8.04 ± 0.85 |
| CCCCCCCC [octane] + CCCCCCCCn1cc[n+](C)c1C.O=S(=O)([N-]S(=O)(=O)C(F)(F)F)C(F)(F)F | 11.1 ± 1.2 | 9.5 ± 1 | 8.12 ± 0.85 | 7.17 ± 0.75 | 6.32 ± 0.66 |
| CCCCCO [pentan-1-ol] + CCCCCCCCn1cc[n+](C)c1C.O=S(=O)([N-]S(=O)(=O)C(F)(F)F)C(F)(F)F | 2.61 ± 0.27 | 2.22 ± 0.23 | 1.92 ± 0.2 | 1.62 ± 0.17 | 1.41 ± 0.15 |
| CCCCC [pentane] + CCCCCCCCn1cc[n+](C)c1C.O=S(=O)([N-]S(=O)(=O)C(F)(F)F)C(F)(F)F | 6.78 ± 0.71 | 5.63 ± 0.59 | 4.81 ± 0.51 | 4.24 ± 0.45 | 3.66 ± 0.38 |
| CCCO [propan-1-ol] + CCCCCCCCn1cc[n+](C)c1C.O=S(=O)([N-]S(=O)(=O)C(F)(F)F)C(F)(F)F | 1.94 ± 0.2 | 1.67 ± 0.17 | 1.42 ± 0.15 | 1.22 ± 0.13 | 1.05 ± 0.11 |
| CC(C)O [propan-2-ol] + CCCCCCCCn1cc[n+](C)c1C.O=S(=O)([N-]S(=O)(=O)C(F)(F)F)C(F)(F)F | 2.13 ± 0.22 | 1.82 ± 0.19 | 1.56 ± 0.16 | 1.34 ± 0.14 | 1.17 ± 0.12 |
| ClC(Cl)(Cl)Cl [tetrachloromethane] + CCCCCCCCn1cc[n+](C)c1C.O=S(=O)([N-]S(=O)(=O)C(F)(F)F)C(F)(F)F | 1.77 ± 0.18 | 1.67 ± 0.17 | 1.57 ± 0.16 | 1.46 ± 0.15 | 1.39 ± 0.14 |
| C1CCOC1 [tetrahydrofuran] + CCCCCCCCn1cc[n+](C)c1C.O=S(=O)([N-]S(=O)(=O)C(F)(F)F)C(F)(F)F | 0.54 ± 0.06 | 0.48 ± 0.05 | 0.44 ± 0.05 | 0.4 ± 0.05 | 0.37 ± 0.04 |
| Cc1ccccc1 [toluene] + CCCCCCCCn1cc[n+](C)c1C.O=S(=O)([N-]S(=O)(=O)C(F)(F)F)C(F)(F)F | 1.03 ± 0.1 | 0.94 ± 0.1 | 0.87 ± 0.09 | 0.82 ± 0.08 | 0.78 ± 0.08 |
| ClC(Cl)Cl [trichloromethane] + CCCCCCCCn1cc[n+](C)c1C.O=S(=O)([N-]S(=O)(=O)C(F)(F)F)C(F)(F)F | 0.77 ± 0.08 | 0.7 ± 0.07 | 0.65 ± 0.07 | 0.6 ± 0.06 | 0.54 ± 0.06 |

Source: the NIST ThermoML archive (doi:10.1016/j.jct.2017.12.012)
